The results in this text go back to patent publication US9776995B2, “Bicyclic sulfonamide compounds as sodium channel inhibitors” (AMGEN INC., priority 2013, dated 2017).

One data set deals with Nav 1.7 (Homo sapiens (Human), UniProt Q15858). Description: in-vitro Nav 1.7 PX data. In kind it is cell-based.
The next data set concerns the target Nav 1.5 (Homo sapiens (Human), UniProt Q14524). Put plainly: in-vitro Nav 1.5 PX data. To be noted: read-out: Nav 1.5 PX IC50.

Where two headings read alike, the source gives them in different places.

Chain of Nav 1.5 (Q14524 whole entry): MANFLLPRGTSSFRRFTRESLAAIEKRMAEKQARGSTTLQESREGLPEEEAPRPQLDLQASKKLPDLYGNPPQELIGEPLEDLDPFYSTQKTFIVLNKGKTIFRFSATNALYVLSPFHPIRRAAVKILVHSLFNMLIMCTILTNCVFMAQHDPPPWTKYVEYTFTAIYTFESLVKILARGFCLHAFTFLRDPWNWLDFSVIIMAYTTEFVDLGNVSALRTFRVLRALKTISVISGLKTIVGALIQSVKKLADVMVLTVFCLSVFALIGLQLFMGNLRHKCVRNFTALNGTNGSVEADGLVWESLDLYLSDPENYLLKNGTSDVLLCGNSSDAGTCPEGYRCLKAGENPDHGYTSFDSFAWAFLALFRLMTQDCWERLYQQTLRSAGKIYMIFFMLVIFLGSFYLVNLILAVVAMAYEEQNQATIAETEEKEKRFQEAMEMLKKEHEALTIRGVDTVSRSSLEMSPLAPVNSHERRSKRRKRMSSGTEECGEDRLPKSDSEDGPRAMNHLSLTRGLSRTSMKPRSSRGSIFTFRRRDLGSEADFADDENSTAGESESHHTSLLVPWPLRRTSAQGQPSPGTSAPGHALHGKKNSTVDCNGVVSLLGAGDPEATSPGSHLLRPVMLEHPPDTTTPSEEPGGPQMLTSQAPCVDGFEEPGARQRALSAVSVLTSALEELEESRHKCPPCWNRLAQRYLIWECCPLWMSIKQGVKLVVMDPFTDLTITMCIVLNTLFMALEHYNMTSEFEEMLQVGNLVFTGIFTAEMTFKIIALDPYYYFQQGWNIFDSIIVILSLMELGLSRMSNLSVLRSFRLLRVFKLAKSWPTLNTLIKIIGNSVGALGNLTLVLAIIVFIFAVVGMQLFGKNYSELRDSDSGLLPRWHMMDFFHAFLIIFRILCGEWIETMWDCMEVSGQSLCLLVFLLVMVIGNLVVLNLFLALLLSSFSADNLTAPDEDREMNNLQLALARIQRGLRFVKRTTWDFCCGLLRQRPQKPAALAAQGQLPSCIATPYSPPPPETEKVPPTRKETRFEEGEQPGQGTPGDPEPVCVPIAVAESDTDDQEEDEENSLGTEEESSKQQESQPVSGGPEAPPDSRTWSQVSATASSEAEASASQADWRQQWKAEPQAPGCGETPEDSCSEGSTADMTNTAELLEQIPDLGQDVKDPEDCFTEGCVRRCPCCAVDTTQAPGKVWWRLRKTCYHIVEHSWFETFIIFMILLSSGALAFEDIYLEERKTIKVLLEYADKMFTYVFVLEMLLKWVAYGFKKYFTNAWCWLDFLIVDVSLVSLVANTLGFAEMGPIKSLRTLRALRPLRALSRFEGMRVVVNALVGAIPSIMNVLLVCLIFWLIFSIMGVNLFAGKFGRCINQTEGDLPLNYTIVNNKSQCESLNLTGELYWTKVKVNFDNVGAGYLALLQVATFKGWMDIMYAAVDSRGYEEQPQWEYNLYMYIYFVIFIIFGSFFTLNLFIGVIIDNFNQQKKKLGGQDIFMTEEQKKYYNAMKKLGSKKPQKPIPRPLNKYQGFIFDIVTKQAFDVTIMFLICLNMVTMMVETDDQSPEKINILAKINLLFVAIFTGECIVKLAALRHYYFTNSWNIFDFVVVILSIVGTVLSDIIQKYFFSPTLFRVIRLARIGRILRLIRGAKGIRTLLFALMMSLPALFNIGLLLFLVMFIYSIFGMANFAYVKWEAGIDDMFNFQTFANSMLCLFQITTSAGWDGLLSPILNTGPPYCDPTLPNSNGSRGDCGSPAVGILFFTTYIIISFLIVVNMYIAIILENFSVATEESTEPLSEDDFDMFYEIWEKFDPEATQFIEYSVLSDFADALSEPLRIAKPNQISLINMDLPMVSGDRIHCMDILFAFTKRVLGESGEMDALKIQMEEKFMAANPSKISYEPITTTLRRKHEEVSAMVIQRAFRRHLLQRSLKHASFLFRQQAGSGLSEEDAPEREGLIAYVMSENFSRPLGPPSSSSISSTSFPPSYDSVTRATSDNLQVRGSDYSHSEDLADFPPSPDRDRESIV
Chain of Nav 1.7 (Q15858 whole entry): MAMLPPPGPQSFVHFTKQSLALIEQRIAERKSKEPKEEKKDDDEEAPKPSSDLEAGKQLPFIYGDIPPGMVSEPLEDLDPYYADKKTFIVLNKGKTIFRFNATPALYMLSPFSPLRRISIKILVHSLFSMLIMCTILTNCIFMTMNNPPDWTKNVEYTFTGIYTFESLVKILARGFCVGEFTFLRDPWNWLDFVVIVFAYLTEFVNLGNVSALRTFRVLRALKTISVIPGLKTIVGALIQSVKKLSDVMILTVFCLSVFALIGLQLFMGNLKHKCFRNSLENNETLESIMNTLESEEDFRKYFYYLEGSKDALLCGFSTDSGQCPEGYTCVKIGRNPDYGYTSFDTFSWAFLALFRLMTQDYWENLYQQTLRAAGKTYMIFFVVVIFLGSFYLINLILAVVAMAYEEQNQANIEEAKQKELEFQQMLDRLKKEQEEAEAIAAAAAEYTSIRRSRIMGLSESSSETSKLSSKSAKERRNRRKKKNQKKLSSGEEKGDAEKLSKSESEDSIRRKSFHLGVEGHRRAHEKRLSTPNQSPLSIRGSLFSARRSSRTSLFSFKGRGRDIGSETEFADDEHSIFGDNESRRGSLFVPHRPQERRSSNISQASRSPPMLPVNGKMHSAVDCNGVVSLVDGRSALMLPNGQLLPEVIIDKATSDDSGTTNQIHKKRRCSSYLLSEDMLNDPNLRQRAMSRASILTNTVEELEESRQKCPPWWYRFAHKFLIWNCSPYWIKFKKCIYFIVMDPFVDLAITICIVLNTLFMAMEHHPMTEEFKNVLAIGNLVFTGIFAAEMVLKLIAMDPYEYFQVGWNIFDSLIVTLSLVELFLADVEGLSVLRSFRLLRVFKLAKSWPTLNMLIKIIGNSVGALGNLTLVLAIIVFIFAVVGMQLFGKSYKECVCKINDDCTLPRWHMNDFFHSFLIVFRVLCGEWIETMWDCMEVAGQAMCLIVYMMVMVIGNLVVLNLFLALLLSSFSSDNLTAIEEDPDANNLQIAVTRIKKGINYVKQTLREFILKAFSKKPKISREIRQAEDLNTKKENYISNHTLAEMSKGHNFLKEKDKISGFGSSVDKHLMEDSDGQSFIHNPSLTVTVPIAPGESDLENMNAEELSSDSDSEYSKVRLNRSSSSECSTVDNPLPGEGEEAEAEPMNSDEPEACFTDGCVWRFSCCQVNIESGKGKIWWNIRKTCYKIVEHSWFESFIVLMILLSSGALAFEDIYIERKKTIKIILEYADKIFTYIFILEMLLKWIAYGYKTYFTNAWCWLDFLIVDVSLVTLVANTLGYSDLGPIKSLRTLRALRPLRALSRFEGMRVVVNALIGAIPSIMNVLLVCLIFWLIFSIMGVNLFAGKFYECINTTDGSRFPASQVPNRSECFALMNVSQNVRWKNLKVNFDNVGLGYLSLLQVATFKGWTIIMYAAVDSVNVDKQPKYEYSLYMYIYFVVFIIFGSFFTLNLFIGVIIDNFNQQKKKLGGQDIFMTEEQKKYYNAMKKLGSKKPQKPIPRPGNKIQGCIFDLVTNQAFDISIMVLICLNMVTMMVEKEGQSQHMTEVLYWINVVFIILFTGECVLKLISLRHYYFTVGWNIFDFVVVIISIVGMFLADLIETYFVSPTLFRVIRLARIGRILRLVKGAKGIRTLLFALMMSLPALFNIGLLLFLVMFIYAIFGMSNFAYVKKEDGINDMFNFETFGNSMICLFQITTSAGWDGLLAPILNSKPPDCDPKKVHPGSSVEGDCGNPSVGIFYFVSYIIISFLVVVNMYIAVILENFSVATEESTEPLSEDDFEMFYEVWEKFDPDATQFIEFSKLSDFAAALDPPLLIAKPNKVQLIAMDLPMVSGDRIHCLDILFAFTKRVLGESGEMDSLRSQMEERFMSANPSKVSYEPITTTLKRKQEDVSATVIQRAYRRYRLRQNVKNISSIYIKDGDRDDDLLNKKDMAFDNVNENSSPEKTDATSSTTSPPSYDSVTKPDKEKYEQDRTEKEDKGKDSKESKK

Usually IC50 stands for the point on the concentration scale where inhibition reaches its midpoint. Regarding `COc1cc(-c2ccc(F)c(F)c2)c(C)cc1-c1nccc2cc(S(=O)(=O)Nc3nncs3)ccc12` [Example 171, 1-(3′,4′-difluoro-5-methoxy-2-methyl-4-biphenylyl)-N-1,3,4-thiadiazol-2-yl-6-isoquinolinesulfonamide], the IC50 against Nav 1.7 (in-vitro Nav 1.7 PX data) is 0.0334 µM; at Nav 1.5 (in-vitro Nav 1.5 PX data), more than 10 µM.
In the same order, the values of `COc1cc(-c2cc(F)cc(F)c2)c(C)cc1-c1nccc2cc(S(=O)(=O)Nc3nncs3)ccc12` [Example 172, 1-(3′,5′-difluoro-5-methoxy-2-methyl-4-biphenylyl)-N-1,3,4-thiadiazol-2-yl-] are 0.0349 µM and more than 10 µM.
As for `COc1cc(Oc2ccc(F)cc2)ccc1-c1nccc2cc(S(=O)(=O)Nc3nncs3)ccc12` [Example 174, 1-(4-(4-fluorophenoxy)-2-methoxyphenyl)-N-1,3,4-thiadiazol-2-yl-6-isoquinolinesulfonamide], the IC50 against Nav 1.7 (in-vitro PX (PatchXpress) data) was 0.141 µM; at Nav 1.5 (in-vitro PX (PatchXpress) data), more than 10 µM.
On the same counts, the results for `COc1cc(Oc2ccc(F)c(F)c2)ccc1-c1nccc2cc(S(=O)(=O)Nc3ccncn3)ccc12` [Example 175, 1-(4-(3,4-difluorophenoxy)-2-methoxyphenyl)-N-4-pyrimidinyl-6-isoquinolinesulfonamide] are 0.197 µM and more than 10 µM.
For `COc1cc(Oc2ccc(C)c(C)c2)ccc1-c1nccc2cc(S(=O)(=O)Nc3ccncn3)ccc12` [Example 176, 1-(4-(3,4-dimethylphenoxy)-2-methoxyphenyl)-N-4-pyrimidinyl-6-isoquinolinesulfonamide], the half-inhibitory concentration (IC50) against Nav 1.7 (in-vitro PX (PatchXpress) data) is 0.204 µM; at Nav 1.5 (in-vitro PX (PatchXpress) data) it was more than 10 µM.
For the compound `COc1cc(Oc2ccc(C)c(F)c2)ccc1-c1nccc2cc(S(=O)(=O)Nc3ccncn3)ccc12` [Example 177, 1-(4-(3-fluoro-4-methylphenoxy)-2-methoxyphenyl)-N-4-pyrimidinyl-6-isoquinolinesulfonamide], the values for the IC50 at Nav 1.7 (in-vitro PX (PatchXpress) data) and on Nav 1.5 (in-vitro PX (PatchXpress) data) were 0.0993 µM and more than 10 µM, respectively.
On the same counts, the results for `COc1cc(Oc2cc(C)cc(F)c2)ccc1-c1nccc2cc(S(=O)(=O)Nc3ccncn3)ccc12` [Example 179, 1-(4-(3-fluoro-5-methylphenoxy)-2-methoxyphenyl)-N-4-pyrimidinyl-6-isoquinolinesulfonamide] are 0.077 µM and more than 10 µM.
Consider `COc1cc(Oc2cc(C)cc(C)c2)ccc1-c1nccc2cc(S(=O)(=O)Nc3ccncn3)ccc12` [Example 180, 1-(4-(3,5-dimethylphenoxy)-2-methoxyphenyl)-N-4-pyrimidinyl-6-isoquinolinesulfonamide], for which the IC50 on Nav 1.7 (in-vitro PX (PatchXpress) data) is 0.52 µM; at Nav 1.5 (in-vitro PX (PatchXpress) data), more than 10 µM.
As for `COc1cc(Oc2cccc(C)c2)ccc1-c1nccc2cc(S(=O)(=O)Nc3ccncn3)ccc12` [Example 181, 1-(2-methoxy-4-(3-methylphenoxy)phenyl)-N-4-pyrimidinyl-6-isoquinolinesulfonamide], the IC50 on Nav 1.7 (in-vitro PX (PatchXpress) data) is 0.126 µM; on Nav 1.5 (in-vitro PX (PatchXpress) data), more than 10 µM.
In the same order, the values of `COc1ccc(Oc2ccc(-c3nccc4cc(S(=O)(=O)Nc5ccncn5)ccc34)c(OC)c2)cc1` [Example 182, 1-(2-methoxy-4-(4-methoxyphenoxy)phenyl)-N-4-pyrimidinyl-6-isoquinolinesulfonamide] are 0.305 µM and more than 10 µM.
With `COc1cccc(Oc2ccc(-c3nccc4cc(S(=O)(=O)Nc5ccncn5)ccc34)c(OC)c2)c1` [Example 183, 1-(2-methoxy-4-(3-methoxyphenoxy)phenyl)-N-4-pyrimidinyl-6-isoquinolinesulfonamide], the IC50 was 0.203 µM on Nav 1.7 (in-vitro PX (PatchXpress) data) and more than 10 µM at Nav 1.5 (in-vitro PX (PatchXpress) data).
In the same order, the values of `COc1cc(-c2cccc(C(F)(F)F)c2)c(C#N)cc1-c1nccc2cc(S(=O)(=O)Nc3ccncn3)ccc12` [Example 184, 1-(2-cyano-5-methoxy-3′-(trifluoromethyl)-4-biphenylyl)-N-4-pyrimidinyl-6-isoquinolinesulfonamide] are 0.0363 µM and more than 30 µM.
On the same counts, the results for `COc1cc(-c2ccc(C(F)(F)F)cc2)c(C#N)cc1-c1nccc2cc(S(=O)(=O)Nc3ccncn3)ccc12` [Example 185, 1-(2-cyano-5-methoxy-4′-(trifluoromethyl)-4-biphenylyl)-N-4-pyrimidinyl-6-isoquinolinesulfonamide] are 0.056 µM and 20.7 µM.
With `COc1cc(-c2ccc(F)cc2)c(C#N)cc1-c1nccc2cc(S(=O)(=O)Nc3ccncn3)ccc12` [Example 186, 1-(2-cyano-4′-fluoro-5-methoxy-4-biphenylyl)-N-4-pyrimidinyl-6-isoquinolinesulfonamide], the figures for the IC50 against Nav 1.7 (in-vitro PX (PatchXpress) data) and at Nav 1.5 (in-vitro PX (PatchXpress) data) were 0.15 µM and more than 10 µM, respectively.
Regarding `COc1cc(Oc2cc(F)ccc2F)ccc1-c1nccc2cc(S(=O)(=O)Nc3nncs3)ccc12` [Example 187, 1-(4-(2,5-difluorophenoxy)-2-methoxyphenyl)-N-1,3,4-thiadiazol-2-yl-6-isoquinolinesulfonamide], the IC50 is 0.0994 µM at Nav 1.7 (in-vitro PX (PatchXpress) data) and more than 10 µM at Nav 1.5 (in-vitro PX (PatchXpress) data).
On the same counts, the results for `COc1cc(-c2cc(C)cnc2OC)ccc1-c1nccc2cc(S(=O)(=O)Nc3nncs3)ccc12` [Example 188, 1-(2-methoxy-4-(2-methoxy-5-methyl-3-pyridinyl)phenyl)-N-1,3,4-thiadiazol-2-yl-6-isoquinolinesulfonamide] are 0.215 µM and more than 30 µM.
On the same counts, the results for `COc1cc(-c2ccc(-c3nccc4cc(S(=O)(=O)Nc5nncs5)ccc34)c(OC)c2)c(F)cn1` [Example 189, 1-(4-(5-fluoro-2-methoxy-4-pyridinyl)-2-methoxyphenyl)-N-1,3,4-thiadiazol-2-yl-6-isoquinolinesulfonamide] are 0.394 µM and more than 30 µM.
For `COc1cc(Oc2cc(C)ccc2F)ccc1-c1nccc2cc(S(=O)(=O)Nc3nncs3)ccc12` [Example 190, 1-(4-(2-fluoro-5-methylphenoxy)-2-methoxyphenyl)-N-1,3,4-thiadiazol-2-yl-6-isoquinolinesulfonamide], the IC50 was 0.243 µM against Nav 1.7 (in-vitro PX (PatchXpress) data) and more than 10 µM on Nav 1.5 (in-vitro PX (PatchXpress) data).
Regarding `COc1cc(Oc2ccc(C)c(F)c2)ccc1-c1nccc2cc(S(=O)(=O)Nc3nncs3)ccc12` [Example 194, 1-(4-(3-fluoro-4-methylphenoxy)-2-methoxyphenyl)-N-1,3,4-thiadiazol-2-yl-6-isoquinolinesulfonamide], the results for the IC50 against Nav 1.7 (in-vitro PX (PatchXpress) data) and at Nav 1.5 (in-vitro PX (PatchXpress) data) were 0.133 µM and more than 10 µM, respectively.
On to `COc1cc(-c2ccc(F)c(F)c2)c(C#N)cc1-c1nccc2cc(S(=O)(=O)Nc3ccncn3)ccc12` [Example 197, 1-(2-cyano-3′,4′-difluoro-5-methoxy-4-biphenylyl)-N-4-pyrimidinyl-6-isoquinolinesulfonamide], for which the IC50 is 0.076 µM against Nav 1.7 (in-vitro PX (PatchXpress) data) and more than 10 µM at Nav 1.5 (in-vitro PX (PatchXpress) data).
As for `COc1cc(-c2cc(F)cnc2OC)c(C)cc1-c1ncnc2cc(S(=O)(=O)Nc3ccon3)ccc12` [Example 198, 4-(4-(5-fluoro-2-methoxy-3-pyridinyl)-2-methoxy-5-methylphenyl)-N-3-isoxazolyl-7-quinazolinesulfonamide], the IC50 on Nav 1.7 (in-vitro PX (PatchXpress) data) is 0.183 µM; at Nav 1.5 (in-vitro PX (PatchXpress) data), more than 10 µM.
Turning to `COc1cc(-c2ccc(F)c(F)c2)c(C)cc1-c1ncnc2cc(S(=O)(=O)Nc3ccon3)ccc12` [Example 199, 4-(3′,4′-difluoro-5-methoxy-2-methyl-4-biphenylyl)-N-3-isoxazolyl-7-quinazolinesulfonamide], the IC50 is 0.036 µM against Nav 1.7 (in-vitro PX (PatchXpress) data) and more than 10 µM at Nav 1.5 (in-vitro PX (PatchXpress) data).
On the same counts, the results for `COc1cc(-c2cc(F)cnc2OC)c(C#N)cc1-c1ncnc2cc(S(=O)(=O)Nc3ccon3)ccc12` [Example 201, 4-(5-cyano-4-(5-fluoro-2-methoxy-3-pyridinyl)-2-methoxyphenyl)-N-3-isoxazolyl-7-quinazolinesulfonamide] are 0.424 µM and more than 10 µM.
On to `COc1cc(-c2cc(F)cc(F)c2)c(C#N)cc1-c1ncnc2cc(S(=O)(=O)Nc3ccon3)ccc12` [Example 202, 4-(2-cyano-3′,5′-difluoro-5-methoxy-4-biphenylyl)-N-3-isoxazolyl-7-quinazolinesulfonamide], for which the IC50 against Nav 1.7 (in-vitro PX (PatchXpress) data) was 0.046 µM; on Nav 1.5 (in-vitro PX (PatchXpress) data) it was more than 10 µM.
With `COc1cc(-c2cccc(F)c2)c(C#N)cc1-c1ncnc2cc(S(=O)(=O)Nc3ccon3)ccc12` [Example 203, 4-(2-cyano-3′-fluoro-5-methoxy-4-biphenylyl)-N-3-isoxazolyl-7-quinazolinesulfonamide], the half-maximal inhibitory concentration (IC50) is 0.0288 µM against Nav 1.7 (in-vitro PX (PatchXpress) data) and more than 10 µM on Nav 1.5 (in-vitro PX (PatchXpress) data).
As for `N#CCOc1cc(-c2cccc(F)c2)ccc1-c1nccc2cc(S(=O)(=O)Nc3ccncn3)ccc12` [Example 208, 1-(3-(cyanomethoxy)-3′-fluoro-4-biphenylyl)-N-4-pyrimidinyl-6-isoquinolinesulfonamide], the half-inhibitory concentration (IC50) is 0.23 µM at Nav 1.7 (in-vitro PX) and more than 30 µM on Nav 1.5 (in-vitro PX).
In the same order, the values of `COc1cc(-c2cc(F)cnc2OC)ccc1-c1ccnc2cc(S(=O)(=O)Nc3nncs3)ccc12` [Example 209, 4-(4-(5-fluoro-2-methoxy-3-pyridinyl)-2-methoxyphenyl)-N-1,3,4-thiadiazol-2-yl-7-quinolinesulfonamide] are 0.328 µM and more than 10 µM.
Take `COc1cc(-c2cccc(C(F)(F)F)c2)c(C#N)cc1-c1ncnc2cc(S(=O)(=O)Nc3ccon3)ccc12` [Example 211, 4-(2-cyano-5-methoxy-3′-(trifluoromethyl)-4-biphenylyl)-N-3-isoxazolyl-7-quinazolinesulfonamide]: the results for the IC50 on Nav 1.7 (in-vitro PX) and at Nav 1.5 (in-vitro PX) were 0.0169 µM and more than 10 µM, respectively.
For `COc1cc(-c2cccc(F)c2)c(Cl)cc1-c1nn(C)c(=O)c2cc(S(=O)(=O)Nc3nncs3)ccc12` [Example 215, 1-(2-chloro-3′-fluoro-5-methoxy-4-biphenylyl)-3-methyl-4-oxo-N-1,3,4-thiadiazol-2-yl-3,4-dihydro-6-phthalazinesulfonamide], the IC50 was 0.0823 µM against Nav 1.7 (in-vitro PX) and more than 10 µM at Nav 1.5 (in-vitro PX).
